The source made the active and inactive calls.
Experiments:
[1] = target: Sphingosine 1-phosphate receptor 3 (Homo sapiens, UniProt Q99500); assay: Dose response cell-based high throughput screening assay for antagonists of the Sphingosine 1-Phosphate Receptor 3 (S1P3). [Related pubchem assays: 1429, 485 ]; assay type: functional
[2] = target: 5-hydroxytryptamine receptor 1E (Homo sapiens, UniProt P28566); assay: Counterscreen assay for S1P3 antagonists: Dose response cell-based high throughput screening assay to identify antagonists of the 5-Hydroxytryptamine Receptor Subtype 1E (5HT1E). [Related pubchem assays: 1429, 485 ]; assay type: functional
[3] = target: Sphingosine 1-phosphate receptor 2 (Homo sapiens, UniProt O95136); assay: Dose Response Cell Based Assay for Agonists of the S1P2 Receptor of Purchased Analogues. [Related pubchem assays: 729, 843, 854, 736 ]; assay type: functional
[4] = Counterscreen for IDE inhibitors: Luminescence-based cell-based high throughput dose response assay to identify compounds that are cytotoxic to HEK cells. [Related pubchem assays: 434962 (Primary screen (IDE inhibitors in singlicate)), 449730 (Counterscreen (Cytotoxicity in triplicate)), 435028 (Confirmation (IDE inhibitors in triplicate)) …; assay type: functional; conditions: HEK293
Insulin-degrading enzyme = target: T1, Insulin-degrading enzyme (Homo sapiens, UniProt P14735); assay: Dose Response: Fluorescence polarization-based cell-based high throughput dose response assay for inhibitors of insulin-degrading enzyme (IDE). [Related pubchem assays: 434962 (Primary screen (IDE inhibitors in singlicate)), 449730 (Counterscreen (Cytotoxicity in triplicate)), 435028 (Confirmation (IDE inhibitors in triplicate)), 434984 (Summary …; assay type: functional
T1 sequence (P14735 whole entry): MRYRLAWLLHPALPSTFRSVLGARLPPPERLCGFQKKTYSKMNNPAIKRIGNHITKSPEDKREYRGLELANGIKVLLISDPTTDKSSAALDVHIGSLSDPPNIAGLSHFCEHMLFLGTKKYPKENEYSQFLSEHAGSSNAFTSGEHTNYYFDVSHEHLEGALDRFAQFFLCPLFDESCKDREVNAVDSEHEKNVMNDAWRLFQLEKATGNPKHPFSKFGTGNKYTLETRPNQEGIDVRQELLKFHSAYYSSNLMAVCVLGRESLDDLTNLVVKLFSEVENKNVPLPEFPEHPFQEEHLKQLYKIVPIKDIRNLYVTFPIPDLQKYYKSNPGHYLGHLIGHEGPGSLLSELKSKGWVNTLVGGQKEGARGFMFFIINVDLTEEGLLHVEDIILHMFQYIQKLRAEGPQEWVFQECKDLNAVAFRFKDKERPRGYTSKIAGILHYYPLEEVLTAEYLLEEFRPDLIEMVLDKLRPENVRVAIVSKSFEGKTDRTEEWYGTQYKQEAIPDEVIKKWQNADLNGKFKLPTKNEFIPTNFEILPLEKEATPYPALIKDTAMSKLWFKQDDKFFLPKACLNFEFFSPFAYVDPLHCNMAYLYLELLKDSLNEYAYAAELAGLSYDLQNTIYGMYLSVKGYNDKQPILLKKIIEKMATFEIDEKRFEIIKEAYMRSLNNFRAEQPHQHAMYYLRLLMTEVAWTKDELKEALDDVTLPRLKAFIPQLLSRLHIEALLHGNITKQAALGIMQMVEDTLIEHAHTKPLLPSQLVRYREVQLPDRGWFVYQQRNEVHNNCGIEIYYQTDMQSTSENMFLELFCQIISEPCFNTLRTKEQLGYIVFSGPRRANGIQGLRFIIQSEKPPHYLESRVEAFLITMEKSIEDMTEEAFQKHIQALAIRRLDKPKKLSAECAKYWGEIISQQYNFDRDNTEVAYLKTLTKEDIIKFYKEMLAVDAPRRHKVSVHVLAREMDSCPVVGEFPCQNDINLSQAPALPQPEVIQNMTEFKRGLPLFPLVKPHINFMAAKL

[5] = mitochondrial function rescue without frataxin homolog – Friedreich's ataxia, plus single-dose screen, dose response (AID 1465); assay type: functional;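 note: yeast depleted of Yfh1p frataxin homolog grown on glycerol needing respiration; WST-1 tetrazolium dye reduction as measure of cellular dehydrogenase metabolic activity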
[6] = target: T2, Serine/threonine-protein phosphatase (Homo sapiens, UniProt Q9BPW0); assay: Counterscreen for inhibitors of PP1: fluorescence-based biochemical high throughput dose response assay to identify inhibitors of Protein Phosphatase 5 (PP5). [Related pubchem assays: 2034 (Summary (PP5 inhibitors)), 1987 (PP5 inhibitors in singlate), 2235 (PP1 inhibitors in singlate)]
T2 sequence (Q9BPW0 whole entry): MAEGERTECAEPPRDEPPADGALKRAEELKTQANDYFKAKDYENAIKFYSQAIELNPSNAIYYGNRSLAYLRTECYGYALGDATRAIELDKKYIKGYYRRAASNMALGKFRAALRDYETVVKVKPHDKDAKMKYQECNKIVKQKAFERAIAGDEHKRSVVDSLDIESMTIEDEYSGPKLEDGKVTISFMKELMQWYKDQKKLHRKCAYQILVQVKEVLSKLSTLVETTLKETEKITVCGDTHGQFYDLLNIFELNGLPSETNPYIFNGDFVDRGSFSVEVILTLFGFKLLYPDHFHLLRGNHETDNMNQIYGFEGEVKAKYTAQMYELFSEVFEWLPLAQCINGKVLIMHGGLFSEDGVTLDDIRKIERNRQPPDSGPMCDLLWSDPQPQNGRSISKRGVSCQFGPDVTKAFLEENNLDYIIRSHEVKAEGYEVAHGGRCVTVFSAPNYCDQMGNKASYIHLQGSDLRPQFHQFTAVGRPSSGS

[7] = target: Serine/threonine-protein phosphatase PP1-alpha catalytic subunit (Homo sapiens, UniProt P62136); assay: inhibition of protein phosphatase 1 activity – biochemical, fluorescence, dose response (AID 2403);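 note: phosphatase turnover of OMFP into fluorescent 3-O-methylfluorescein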
[8] = target: T3, Heat shock factor protein 1 (Mus musculus, UniProt P38532); assay: enhancement of HSF1-driven luciferase signal – cell-based, NIH3T3, luminescence, dose retest, confirmation (AID 435004); assay type: functional;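 note: stress induced by proteasome inhibitor MG132 added 30 min after compound; luciferase reporter driven by HSF1 response element in NIH3T3 cells; actives raise luminescence as potentiators of the MG132 stress response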
T3 sequence (P38532 whole entry): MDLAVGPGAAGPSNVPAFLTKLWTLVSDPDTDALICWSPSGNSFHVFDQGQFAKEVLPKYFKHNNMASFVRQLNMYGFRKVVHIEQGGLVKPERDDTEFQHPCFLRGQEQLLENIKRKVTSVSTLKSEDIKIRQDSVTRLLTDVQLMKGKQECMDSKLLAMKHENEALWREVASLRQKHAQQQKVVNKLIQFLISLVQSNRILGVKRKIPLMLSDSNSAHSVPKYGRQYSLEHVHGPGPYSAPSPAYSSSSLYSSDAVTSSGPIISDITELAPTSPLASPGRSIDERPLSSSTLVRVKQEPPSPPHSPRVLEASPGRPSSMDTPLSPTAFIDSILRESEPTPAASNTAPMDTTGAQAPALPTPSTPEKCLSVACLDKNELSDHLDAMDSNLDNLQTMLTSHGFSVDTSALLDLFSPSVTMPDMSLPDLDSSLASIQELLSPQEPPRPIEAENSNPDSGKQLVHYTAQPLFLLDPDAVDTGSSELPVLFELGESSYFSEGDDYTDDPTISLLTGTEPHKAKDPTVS

[9] = system: Streptococcus sp. 'group A'; assay: Streptococcus pyogenes SK(-)GAS viability under kanamycin – luminescence, BacTiterGlo, confirmation, counter-screen for streptokinase expression inhibitor project, dose response (AID 1900); assay type: functional, organism-based
[10] = target: Potassium voltage-gated channel subfamily KQT member 2 (Rattus norvegicus, UniProt O88943, W236L); assay: potentiation of rat KCNQ2 current – cell-based, automated electrophysiology, mechanism study for KCNQ2 potentiator project, dose response (AID 2603); assay type: functional
[11] = NIH-3T3 fibroblast cytotoxicity, dose response, cytotoxicity control, cell-based, fluorescence, Alamar Blue, secondary assay (AID 2327); assay type: functional;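 note: NIH-3T3 mouse fibroblasts cultured with fluconazole at 8 µg/mL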
[12] = fluconazole-exposed Candida albicans growth modulators – fluorescence, retest, confirmation (AID 2467); assay type: functional, cell-based
Streptococcus = assay: GAS UMAA2166 growth inhibition – luminescence, BacTiterGlo, counter-screen for streptokinase expression inhibitor project, dose response (AID 1915); assay type: functional, organism-based;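 note: potency for reduction of bacterial viability or growth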
Leucine aminopeptidase = Leucine aminopeptidase (Plasmodium falciparum 3D7, UniProt Q8IL11); assay: P. falciparum M17LAP inhibitors, primary screen, biochemical, fluorogenic H-Leu-NHMec substrate, 1536-well (AID 1619); assay type: functional
Procathepsin L = Procathepsin L (Homo sapiens, UniProt P07711); assay: CTSL1 protease inhibition – biochemical, QFRET, 1536-well, counter-screen for M1/M17 aminopeptidase inhibitor project, dose response (AID 2214)
Aspartyl aminopeptidase = target: T4, Aspartyl aminopeptidase (Plasmodium falciparum 3D7, UniProt Q8I2J3); assay: Counterscreen for inhibitors of M1 and M17 aminopeptidases: QFRET-based biochemical high throughput dose response assay for inhibitors of the Plasmodium falciparum M18 Aspartyl Aminopeptidase (PFM18AAP). [Related PubChem assays: 1619 (Screening assay (M17LAP inhibitors).), 1445 (Screening assay (M1AAP inhibitors).)]
T4 sequence (Q8I2J3 whole entry): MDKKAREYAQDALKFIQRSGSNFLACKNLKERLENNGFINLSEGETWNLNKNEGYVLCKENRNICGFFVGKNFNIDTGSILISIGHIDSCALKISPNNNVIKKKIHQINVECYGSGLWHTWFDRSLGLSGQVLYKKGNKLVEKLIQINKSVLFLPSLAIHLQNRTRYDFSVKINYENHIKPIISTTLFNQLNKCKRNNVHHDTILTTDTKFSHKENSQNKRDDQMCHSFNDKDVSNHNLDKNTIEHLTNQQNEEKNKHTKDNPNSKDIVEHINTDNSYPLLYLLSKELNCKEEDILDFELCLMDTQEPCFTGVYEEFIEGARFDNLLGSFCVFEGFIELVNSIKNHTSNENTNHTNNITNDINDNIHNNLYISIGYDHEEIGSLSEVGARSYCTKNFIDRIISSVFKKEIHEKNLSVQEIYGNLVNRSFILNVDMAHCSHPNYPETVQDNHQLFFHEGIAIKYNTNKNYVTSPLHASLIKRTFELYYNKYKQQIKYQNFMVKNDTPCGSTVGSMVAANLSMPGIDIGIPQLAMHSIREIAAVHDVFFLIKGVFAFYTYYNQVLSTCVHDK

cells = assay type: functional, cell-based
[13] = target: Serine/threonine-protein phosphatase (Candida dubliniensis (strain CD36 / CBS 7987 / NCPF 3949 / NRRLY-17841) (Yeast), UniProt B9W6M3); assay: blockers of CaCl2-induced CDRE-lacZ signaling – S. cerevisiae, luminescence, secondary, dose response (AID 2388); assay type: functional, cell-based;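 note: yeast reporter cells carrying a calcineurin-responsive lacZ construct stimulated with calcium chloride; luminescent beta-galactosidase reporter signal in whole cells rather than isolated phosphatase activity; potency for inhibition where a drop in reporter signal means calcineurin blockade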
[14] = luciferase reporter signal reduction – luminescence, H4-C neuroglioblastoma cells, dose response (AID 2458); assay type: functional, cell-based;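 note: H4 neuroglioblastoma cells stably carrying a luciferase reporter gene fusion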
[15] = target: ATP-dependent molecular chaperone HSP82 (Candida albicans (strain WO-1) (Yeast), UniProt C4YTQ8); assay: steroid-induced GRE reporter decrease in yeast – S. cerevisiae, luminescence, Hsp90 inhibitor project, dose response (AID 2400); assay type: functional, cell-based;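 note: beta-galactosidase luminescence from glucocorticoid response element reporter as proxy for Hsp90 function; inhibitor potency where signal loss means Hsp90 inhibition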
[16] = target: Heat shock protein HSP 90-alpha (Homo sapiens, UniProt P07900); assay type: functional, organism-based
[17] = alpha-synuclein stem-loop luciferase translation blockers – H4 neuroglioma cells, luminescence, confirmation (AID 1988); assay type: functional, cell-based
[18] = alpha-synuclein stem-loop translation blockers – luminescence, H4 neuroglioblastoma cells, dose confirmation, confirmation (AID 2454); assay type: functional, cell-based;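 note: H4 neuroglioblastoma cells carrying an alpha-synuclein 5'UTR luciferase reporter; potency for inhibition of the luciferase signal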
[19] = target: T5, Alkaline phosphatase, tissue-nonspecific isozyme (Homo sapiens, UniProt P05186)
T5 sequence (P05186 whole entry): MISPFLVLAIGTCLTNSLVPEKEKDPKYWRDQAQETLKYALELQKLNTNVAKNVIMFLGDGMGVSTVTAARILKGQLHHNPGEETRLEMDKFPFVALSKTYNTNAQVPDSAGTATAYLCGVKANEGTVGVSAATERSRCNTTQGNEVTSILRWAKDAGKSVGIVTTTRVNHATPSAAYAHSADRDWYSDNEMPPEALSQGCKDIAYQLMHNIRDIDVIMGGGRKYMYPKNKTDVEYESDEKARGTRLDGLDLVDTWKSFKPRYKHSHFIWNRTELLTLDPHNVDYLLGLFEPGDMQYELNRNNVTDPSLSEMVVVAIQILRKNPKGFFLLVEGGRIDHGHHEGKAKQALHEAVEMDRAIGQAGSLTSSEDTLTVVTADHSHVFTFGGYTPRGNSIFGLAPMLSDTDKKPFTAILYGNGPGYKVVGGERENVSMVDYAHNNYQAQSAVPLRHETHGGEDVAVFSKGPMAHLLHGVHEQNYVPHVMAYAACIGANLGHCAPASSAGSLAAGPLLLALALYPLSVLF

[20] = target: Mothers against decapentaplegic homolog 3 (Homo sapiens, UniProt P84022); assay: blockers of Smad3 complex formation in lysate – cell lysate, secondary confirmation, chemiluminescent ELISA, HEK293 lysate, dose response (AID 1058); assay type: functional
Sequence of Mothers against decapentaplegic homolog 3 (P84022 whole entry): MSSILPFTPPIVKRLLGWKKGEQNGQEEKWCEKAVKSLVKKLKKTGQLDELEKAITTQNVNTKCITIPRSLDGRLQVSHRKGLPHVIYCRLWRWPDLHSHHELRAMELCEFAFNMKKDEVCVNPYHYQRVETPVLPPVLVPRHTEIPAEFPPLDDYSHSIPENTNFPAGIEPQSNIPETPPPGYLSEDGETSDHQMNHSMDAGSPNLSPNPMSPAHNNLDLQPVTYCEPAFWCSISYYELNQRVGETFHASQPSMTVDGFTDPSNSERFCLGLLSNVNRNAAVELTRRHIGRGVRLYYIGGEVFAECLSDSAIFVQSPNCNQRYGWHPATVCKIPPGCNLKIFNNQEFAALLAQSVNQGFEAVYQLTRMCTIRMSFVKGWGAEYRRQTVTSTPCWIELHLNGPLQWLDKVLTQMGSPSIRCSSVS

Sequence of 5-hydroxytryptamine receptor 1E (P28566 whole entry): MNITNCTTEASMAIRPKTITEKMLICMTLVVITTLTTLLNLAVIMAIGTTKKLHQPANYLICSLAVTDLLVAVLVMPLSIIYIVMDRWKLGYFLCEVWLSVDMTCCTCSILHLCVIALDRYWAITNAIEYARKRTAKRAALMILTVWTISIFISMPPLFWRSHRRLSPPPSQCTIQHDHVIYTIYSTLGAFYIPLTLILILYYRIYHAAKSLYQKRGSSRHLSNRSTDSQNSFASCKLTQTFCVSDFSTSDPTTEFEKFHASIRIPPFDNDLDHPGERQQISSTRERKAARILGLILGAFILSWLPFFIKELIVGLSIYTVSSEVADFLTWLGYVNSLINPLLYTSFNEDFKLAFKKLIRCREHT
Sequence of Leucine aminopeptidase (Q8IL11 whole entry): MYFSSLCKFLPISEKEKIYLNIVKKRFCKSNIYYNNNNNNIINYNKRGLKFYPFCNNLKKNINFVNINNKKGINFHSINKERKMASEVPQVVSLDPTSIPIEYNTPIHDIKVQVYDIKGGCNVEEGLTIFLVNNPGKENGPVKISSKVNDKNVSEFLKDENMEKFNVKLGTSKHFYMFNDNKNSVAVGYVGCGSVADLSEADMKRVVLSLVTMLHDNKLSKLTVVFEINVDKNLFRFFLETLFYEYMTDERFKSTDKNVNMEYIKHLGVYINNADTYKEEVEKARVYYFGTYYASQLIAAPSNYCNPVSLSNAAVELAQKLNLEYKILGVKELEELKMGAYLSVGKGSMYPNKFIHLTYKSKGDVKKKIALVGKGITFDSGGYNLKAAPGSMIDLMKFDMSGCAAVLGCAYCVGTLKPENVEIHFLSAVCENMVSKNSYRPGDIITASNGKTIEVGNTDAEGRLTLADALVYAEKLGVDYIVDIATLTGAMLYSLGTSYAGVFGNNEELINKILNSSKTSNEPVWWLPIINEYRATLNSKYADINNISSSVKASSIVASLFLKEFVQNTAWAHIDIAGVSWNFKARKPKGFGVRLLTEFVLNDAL
Sequence of ATP-dependent molecular chaperone HSP82 (C4YTQ8 whole entry): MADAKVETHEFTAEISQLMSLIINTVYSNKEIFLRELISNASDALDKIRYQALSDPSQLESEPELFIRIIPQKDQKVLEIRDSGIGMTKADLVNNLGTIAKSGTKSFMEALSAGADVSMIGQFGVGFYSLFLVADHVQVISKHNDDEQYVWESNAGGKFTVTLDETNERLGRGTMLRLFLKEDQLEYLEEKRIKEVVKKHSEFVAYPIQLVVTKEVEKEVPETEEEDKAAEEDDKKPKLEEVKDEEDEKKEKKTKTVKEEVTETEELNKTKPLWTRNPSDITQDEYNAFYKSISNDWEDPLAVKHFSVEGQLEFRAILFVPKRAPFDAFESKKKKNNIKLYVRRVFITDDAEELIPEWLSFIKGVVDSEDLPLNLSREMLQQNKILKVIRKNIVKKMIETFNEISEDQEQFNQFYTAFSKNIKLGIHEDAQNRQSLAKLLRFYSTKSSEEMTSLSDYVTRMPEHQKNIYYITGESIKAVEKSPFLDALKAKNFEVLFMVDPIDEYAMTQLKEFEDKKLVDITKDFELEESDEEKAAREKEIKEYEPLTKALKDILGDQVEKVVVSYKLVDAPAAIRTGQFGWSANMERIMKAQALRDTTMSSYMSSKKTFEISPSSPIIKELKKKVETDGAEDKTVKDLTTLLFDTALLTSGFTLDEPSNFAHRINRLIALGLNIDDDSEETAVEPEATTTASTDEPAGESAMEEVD
Sequence of Serine/threonine-protein phosphatase (Candida dubliniensis (strain CD36 / CBS 7987 / NCPF 3949 / NRRLY-17841) (Yeast), UniProt B9W6M3) (B9W6M3 whole entry, the tested form may be a part): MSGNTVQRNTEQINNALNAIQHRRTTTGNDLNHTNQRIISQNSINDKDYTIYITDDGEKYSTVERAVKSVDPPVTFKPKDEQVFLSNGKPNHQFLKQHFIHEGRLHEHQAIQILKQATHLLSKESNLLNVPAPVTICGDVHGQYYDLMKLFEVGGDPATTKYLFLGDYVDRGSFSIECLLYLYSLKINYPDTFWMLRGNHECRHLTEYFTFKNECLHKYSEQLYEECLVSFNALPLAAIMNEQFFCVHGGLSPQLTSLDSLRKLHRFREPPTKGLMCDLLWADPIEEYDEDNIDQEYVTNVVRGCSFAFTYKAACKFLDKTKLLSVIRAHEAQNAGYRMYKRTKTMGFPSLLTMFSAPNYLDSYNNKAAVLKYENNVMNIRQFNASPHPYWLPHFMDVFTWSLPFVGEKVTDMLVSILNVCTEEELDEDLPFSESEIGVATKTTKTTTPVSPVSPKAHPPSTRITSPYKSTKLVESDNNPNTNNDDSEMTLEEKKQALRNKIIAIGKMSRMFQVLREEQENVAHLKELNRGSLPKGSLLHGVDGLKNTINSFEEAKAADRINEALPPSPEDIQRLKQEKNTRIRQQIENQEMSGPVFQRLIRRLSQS
Sequence of Sphingosine 1-phosphate receptor 2 (O95136 whole entry): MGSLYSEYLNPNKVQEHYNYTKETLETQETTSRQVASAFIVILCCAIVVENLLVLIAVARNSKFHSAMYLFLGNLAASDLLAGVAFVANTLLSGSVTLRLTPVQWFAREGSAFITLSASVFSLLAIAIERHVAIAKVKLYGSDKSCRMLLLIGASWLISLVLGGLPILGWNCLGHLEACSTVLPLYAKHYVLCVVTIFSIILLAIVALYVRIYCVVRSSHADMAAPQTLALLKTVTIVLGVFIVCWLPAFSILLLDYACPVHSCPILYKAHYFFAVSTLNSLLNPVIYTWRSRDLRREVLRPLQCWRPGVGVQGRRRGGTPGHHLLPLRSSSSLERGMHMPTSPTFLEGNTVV
Sequence of Potassium voltage-gated channel subfamily KQT member 2 (O88943 whole entry W236L): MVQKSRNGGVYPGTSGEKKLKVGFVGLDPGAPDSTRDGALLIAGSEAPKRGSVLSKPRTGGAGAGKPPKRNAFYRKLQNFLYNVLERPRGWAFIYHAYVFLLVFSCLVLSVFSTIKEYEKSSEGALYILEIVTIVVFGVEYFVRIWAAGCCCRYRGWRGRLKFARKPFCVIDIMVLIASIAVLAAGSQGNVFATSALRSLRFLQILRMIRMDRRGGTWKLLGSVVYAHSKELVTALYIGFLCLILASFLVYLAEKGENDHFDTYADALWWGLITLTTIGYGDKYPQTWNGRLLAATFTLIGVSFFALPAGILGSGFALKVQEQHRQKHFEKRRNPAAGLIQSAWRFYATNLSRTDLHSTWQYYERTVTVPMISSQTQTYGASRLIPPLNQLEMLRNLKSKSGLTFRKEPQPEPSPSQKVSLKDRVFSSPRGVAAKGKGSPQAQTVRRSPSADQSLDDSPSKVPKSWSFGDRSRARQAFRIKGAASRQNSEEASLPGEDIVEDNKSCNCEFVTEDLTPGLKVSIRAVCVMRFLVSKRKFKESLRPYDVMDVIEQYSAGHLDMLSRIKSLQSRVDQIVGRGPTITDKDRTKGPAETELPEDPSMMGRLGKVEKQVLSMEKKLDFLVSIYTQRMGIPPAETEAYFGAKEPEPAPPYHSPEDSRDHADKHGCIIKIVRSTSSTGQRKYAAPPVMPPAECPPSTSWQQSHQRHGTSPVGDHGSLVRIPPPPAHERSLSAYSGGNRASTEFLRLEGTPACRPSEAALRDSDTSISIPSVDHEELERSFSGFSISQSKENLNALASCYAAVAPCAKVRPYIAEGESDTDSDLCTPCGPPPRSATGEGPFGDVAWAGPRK
Sequence of Serine/threonine-protein phosphatase PP1-alpha catalytic subunit (P62136 whole entry): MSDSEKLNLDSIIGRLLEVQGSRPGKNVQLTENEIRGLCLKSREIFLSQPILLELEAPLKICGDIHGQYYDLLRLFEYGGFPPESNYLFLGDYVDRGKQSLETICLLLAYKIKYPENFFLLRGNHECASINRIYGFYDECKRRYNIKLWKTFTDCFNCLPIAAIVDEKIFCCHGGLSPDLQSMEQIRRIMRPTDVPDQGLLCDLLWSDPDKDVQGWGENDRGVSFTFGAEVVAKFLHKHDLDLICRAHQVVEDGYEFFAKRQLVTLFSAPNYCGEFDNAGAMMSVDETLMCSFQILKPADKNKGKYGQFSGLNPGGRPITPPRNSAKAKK
Sequence of Sphingosine 1-phosphate receptor 3 (Q99500 whole entry): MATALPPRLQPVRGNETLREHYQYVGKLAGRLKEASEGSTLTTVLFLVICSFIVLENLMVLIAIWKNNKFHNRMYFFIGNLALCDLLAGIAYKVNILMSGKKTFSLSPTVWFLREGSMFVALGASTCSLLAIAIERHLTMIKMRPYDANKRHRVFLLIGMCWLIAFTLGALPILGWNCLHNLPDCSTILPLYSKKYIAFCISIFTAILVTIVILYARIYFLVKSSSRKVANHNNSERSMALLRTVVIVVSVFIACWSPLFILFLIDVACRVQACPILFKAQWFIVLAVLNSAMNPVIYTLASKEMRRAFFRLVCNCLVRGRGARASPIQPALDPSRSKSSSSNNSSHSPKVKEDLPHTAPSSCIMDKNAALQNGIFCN
Sequence of Procathepsin L (P07711 whole entry): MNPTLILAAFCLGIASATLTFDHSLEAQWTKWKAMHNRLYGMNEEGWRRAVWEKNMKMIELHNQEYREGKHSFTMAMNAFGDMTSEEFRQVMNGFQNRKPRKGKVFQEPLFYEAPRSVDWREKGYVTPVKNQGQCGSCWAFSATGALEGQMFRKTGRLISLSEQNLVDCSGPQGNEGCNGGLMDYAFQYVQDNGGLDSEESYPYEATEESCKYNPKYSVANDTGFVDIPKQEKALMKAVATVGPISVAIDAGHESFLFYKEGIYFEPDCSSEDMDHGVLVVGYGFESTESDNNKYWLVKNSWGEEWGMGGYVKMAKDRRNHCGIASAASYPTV

For O=C(Nc1ccc(Br)cc1)C(c1ccccc1)c1ccccc1, the IC50 [1] was 1.33 µM (active) and the IC50 [2] was > 50 µM (not active).
With Cc1cc(C(=O)Cn2cc(C(F)(F)F)ccc2=O)c(C)n1Cc1ccccc1 the EC50 [3] was 0.723 µM (active).
With O=C1NC(=O)N(c2ccc3c(c2)OCO3)C(=O)/C1=C/c1ccc(N2CCCC2)o1 the IC50 [4] was > 55.7 µM (not active), the IC50 (Insulin-degrading enzyme) was 20.7 µM (not active) and the EC50 [5] was > 100 µM (active).
For O=C(O)c1cc(-c2ccc(Cl)c(Cl)c2)n(-c2ccccc2)n1, the IC50 [6] was > 67 µM (not active), the IC50 [7] was 5.82 µM (active) and the EC50 [8] was > 260 µM (inactive).
With O=C(Cc1ccccc1)N/N=C/c1cc(Br)cc(Cl)c1O the EC50 [9] was 1.05 µM (active), the EC50 [10] was 7.13 µM (active) and the EC50 [11] was > 150 µM (inactive). For the same compound, the EC50 [12] was 4.68 µM (active) and the EC50 (Streptococcus) was 1.73 µM (active).
In the case of CCN(CC)c1ccc(NC(=O)CSc2nc(C)cc(O)n2)cc1, the IC50 (Leucine aminopeptidase) is reported as 3.06 µM (active), the IC50 (Procathepsin L) is reported as > 59.6 µM (not active) and the IC50 (Aspartyl aminopeptidase) is reported as > 73.5 µM (not active).
With Oc1c(C(Nc2nccs2)c2ccc(C(F)(F)F)cc2)ccc2cccnc12 (stereo not drawn) the EC50 (cells) was 1.04 µM (active), the EC50 [13] was > 180 µM (inactive) and the EC50 [14] was 8.36 µM (active). The EC50 [11] was 11.2 µM (active), the EC50 [15] was > 160 µM (inactive) and the AC50 [16] was 3.69 µM (active). The EC50 [17] was < 0.1 µM (active), the EC50 [18] was > 12 µM (not active) and the EC50 [12] was 1.01 µM (active).
For Cc1ccc(C(O)(C(=O)NNC(=O)CN2CCN(C)CC2)c2ccc(C)cc2)cc1, the EC50 [19] was 64.1 µM (not active).
For COc1cc(C(c2cc3c(cc2O)OCO3)N2CCCCC2)cc(OC)c1OC (stereo not drawn), the IC50 [20] was 12.5 µM (not active).
